PMC7725824, “Fused isoselenazolium salts suppress breast cancer cell growth by dramatic increase in pyruvate-dependent mitochondrial ROS production” (Scientific Reports, 2020)

Tests used:
MCF-7 = assay: Cytotoxicity assay (MTT), MCF-7; format: cell-based, human; conditions: Homo sapiens, MCF7; breast cancer cell line; MTT, 48 h; mean ± S.D., 3 experiments; read-out: Cytotoxicity, IC50, MCF-7
Protocol: (§1) MCF-7 (human breast adenocarcinoma, estrogen-positive) and 4T1 (mouse carcinoma), as breast cancer cell lines, and H9C2 (rat cardiomyoblasts), NIH 3T3 (mouse fibroblasts), HEKa (primary human epidermal keratinocytes), MDCK (Madin-Darby Canine Kidney) cells, and A7r5 (rat vascular smooth muscle cells), as normal cell lines, were obtained from the American Type Culture Collection [ATCC] collection for use in the current study. All cell lines were cultured in Dulbecco's modified Eagle's medium (DMEM) containing 10% fetal bovine serum (FBS) and 4 mM L-glutamine at 37 °C and 5% CO2.
(§2) Cell viability was assessed by the addition of 3-(4,5-dimethylthiazol-2-yl)-2,5-diphenyltetrazolinium bromide (MTT). Briefly, cells were seeded (2–6 × 10^4 cells/ml) in 96-well plates and allowed to attach for 24 h. Solutions of test compounds were prepared and serially diluted to obtain the appropriate concentrations. The cells were treated with the test compounds at different concentrations (0.032–100 µM) and incubated for 48 h at 37 °C and 5% CO2. Then, the culture medium was removed, and medium containing 0.2 mg/ml MTT was added. After 3 h (37 °C, 5% CO2), the MTT-containing medium was removed, and 200 μl of dimethyl sulfoxide (DMSO) was immediately added to each sample. The absorbance was assessed at 540 nm using a Tecan multiplate reader Infinite 1000 (Austria). The half-maximal inhibitory concentration (IC50) of each compound was calculated using Graph Pad Prism 3.0.

4T1 = assay: Cytotoxicity assay (MTT), 4T1; format: cell-based, mouse
Protocol: as §1, §2

[1] = Cytotoxicity assay (MTT), H9C2; format: cell-based, rat; conditions: rat, H9C2 cells (cardiomyoblasts); normal cell line; MTT, 48 h; mean ± S.D., 3 experiments
Protocol: as §1, §2

[2] = Cytotoxicity assay (MTT), 3T3; format: cell-based, mouse; conditions: mouse, NIH 3T3 cells (fibroblasts), normal cell line, mean ± S.D., 3 experiments
Protocol: as §1, §2

[3] = Cytotoxicity assay (MTT), HEKa; format: cell-based, human; conditions: human, HEKa cells (primary epidermal keratinocytes), normal cell line, mean ± S.D., 3 experiments
Protocol: as §1, §2

[4] = Cytotoxicity assay (MTT), MDCK; format: cell-based, Canine; conditions: dog, MDCK cells, normal cell line, mean ± S.D., 3 experiments
Protocol: as §1, §2

[5] = Cytotoxicity assay (MTT), A7r5; format: cell-based, rat; conditions: rat, A7r5 cells (vascular smooth muscle cells), normal cell line, mean ± S.D., 3 experiments
Protocol: as §1, §2

MCF-7 cells [6] = assay: Fluorometric measurement of NMN level; format: cell-based, human; conditions: 2 μM, 10 min, vs control
Protocol: For fluorometric measurements of NMN, a previously described method was used, with minor modifications. […] The cells were washed with PBS and then lysed by adding 200 μl of 1 M HClO4 to each well and incubating at 4 °C for 20 min. The cells were harvested by scraping and transferred to a tube. The extracts were neutralized with 100 μl of 2 M KOH for 5 min at room temperature and 50 μl of 0.1 M bicine (pH 7.4) was added. The samples were centrifuged at 14 000 × g for 10 min at 4 °C, and the supernatant was collected for further analysis. The protein concentration in each sample was determined using a Bio-Rad protein assay kit. […] The reaction was incubated for 2 min at 4 °C, after which 45 μl of 88% formic acid was added, and the samples were incubated for another 10 min at 37 °C on a shaker. The fluorescence was measured using a Tecan multiplate reader Infinite 1000 (Austria) with excitation at 382 nm and emission at […].

MCF-7 cells [7] = assay: NAD+/NADH assay kit measurement; format: cell-based, human; conditions: 2 μM, 10 min, vs control
Protocol: The NAD^+/NADH ratio in the MCF-7 cells exposed to the test compounds (2 μM) for 10 min was measured using an NAD^+/NADH assay kit (Abcam, ab65348) according to the manufacturer's instructions.

NAMPT = biological target: T1, NAMPT (Homo sapiens, UniProt P43490); assay: NAMPT activity assay in lysates of treated cells; format: cell-based; conditions: MCF-7 cells, 2 µM, 4 h
T1 construct: endogenous in cells; host or cells: MCF-7
T1 sequence (P43490 whole entry): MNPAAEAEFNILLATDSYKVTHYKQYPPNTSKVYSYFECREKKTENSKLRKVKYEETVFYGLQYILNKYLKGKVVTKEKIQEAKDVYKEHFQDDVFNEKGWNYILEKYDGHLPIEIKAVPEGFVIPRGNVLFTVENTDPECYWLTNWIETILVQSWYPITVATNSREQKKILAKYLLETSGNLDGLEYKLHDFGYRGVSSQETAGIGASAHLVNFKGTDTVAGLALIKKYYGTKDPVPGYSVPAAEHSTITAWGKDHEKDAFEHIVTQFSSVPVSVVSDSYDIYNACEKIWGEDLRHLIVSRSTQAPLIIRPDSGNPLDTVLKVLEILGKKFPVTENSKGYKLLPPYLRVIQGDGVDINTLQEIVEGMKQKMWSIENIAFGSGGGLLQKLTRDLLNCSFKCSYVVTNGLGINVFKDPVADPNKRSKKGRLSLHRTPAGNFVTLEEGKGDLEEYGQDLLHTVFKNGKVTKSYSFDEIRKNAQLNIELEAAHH
Protocol: MCF-7 cells (5 × 10^6 cells per well) were grown in a 6-well plate and then incubated with the test compounds (2 µM) for 4 h. The cells were harvested by scraping, washed with PBS and lysed with 50 mM Tris–HCl (pH 7.5), 150 mM NaCl, 1 mM DTT, 1 mM PMSF, 0.002 mg/ml leupeptin and pepstatin (2 × 10^6 cells in 100 µl buffer solution). After three freeze–thaw cycles at -80 °C, the cell extract was centrifuged at 15 000 × g for 30 min at 4 °C. The supernatant was collected, and the protein concentrations were determined using a Bio-Rad protein assay kit. The NAMPT enzyme reaction was performed as described previously. The enzymatic reaction mixture contained 50 mM Tris–HCl buffer (pH 7.5), 12 mM MgCl2, 2 mM DTT, 0.02% BSA, 2.5 mM ATP, 0.8 mM PRPP, and 50 μM nicotinamide. […] The concentrations of the NAMPT reaction product, nicotinamide mononucleotide (NMN), in the samples were determined using a described method. […] The fluorescence was measured using a Tecan multiplate reader Infinite 1000 (Austria) with excitation at 382 nm and emission at 445 nm. The NMN concentrations in the reaction mixtures were determined by comparison with NMN standards in the range of 0.16–20 μM. The NAMPT activity in the cell lysates is expressed as the concentration of NMN in μmol per mg protein per hour based on standard NMN readings.

permeabilized 4T1 cells = assay: High-resolution fluorespirometry (respiration and H2O2 flux); format: cell-based, mouse
Protocol: High-resolution fluorespirometry was performed using an Oxygraph-2 k system (OROBOROS INSTRUMENTS, Austria). All experiments were performed at 37 °C in MiR05 medium (110 mM sucrose, 60 mM K-lactobionate, 0.5 mM EGTA, 3 mM MgCl2, 20 mM taurine, 10 mM KH2PO4, 20 mM HEPES, pH 7.1 at 30 °C, and 0.1% BSA essentially fatty acid free). The medium was reoxygenated when the oxygen concentration dropped to 80 µM. H2O2 flux was simultaneously measured with respirometry in the O2k-Fluorometer using the H2O2-sensitive probe Ampliflu Red (AmR) as described. The H2O2/O flux ratio [%] was calculated as the H2O2 flux/(0.5 O2 flux).
In permeabilized 4T1 cells, pyruvate + malate (5 and 2 mM) or glutamate + malate (10 and 2 mM) were used to determine complex I (CI)-linked LEAK (L) respiration. ADP was added to a concentration of 5 mM to determine the oxidative phosphorylation-dependent respiration (OXPHOS state). Succinate (10 mM, complex II (CII) substrate) was then added to reconstitute convergent CI&II-linked respiration. Rotenone (0.5 µM, an inhibitor of complex I) and antimycin A (2.5 µM, an inhibitor of complex III) were added to determine the CII-linked OXPHOS capacity and residual oxygen consumption (ROX), respectively. Compound 6 was added to permeabilized cells after the addition of the respective substrates in the OXPHOS state (titration experiment) or in the LEAK state. In addition, compounds 3, 6 and 7 were tested at 1 µM in the OXPHOS coupling protocol in the LEAK state. The OXPHOS coupling efficiency was calculated as: 1-Resp.rateLEAKstate/Resp.rateOXPHOSstate
The substrate-dependent flux control factor was calculated as: 1-Resp.ratebeforeadditionofrespectivesubstrate/Resp.rateafteradditionofrespectivesubstrate

[8] = 1 µM, pyruvate-dependent OXPHOS state
[9] = titration, pyruvate + malate and glutamate + malate, OXPHOS

## OC1(c2[se][n+]3ccccc3c2Br)CCCCC1.[Cl-] [Compound 3, 3-bromo-2-(1-hydroxycyclohexyl)-[1,2]selenazolo[2,3-a]pyridinium chloride]
MCF-7
  IC50: 500 ± 20 nM
4T1; Mus musculus, 4T1, breast cancer cell line, MTT, 48 h, mean ± S.D., 3 experiments, read-out: Cytotoxicity, IC50, 4T1
  IC50: 44 ± 5 nM
4T1; comparing 4T1 to A7r5
  selectivity towards tumor cell lines: > 42 fold
[1]
  IC50 at 48 h: 2200 ± 100 nM
[2]
  IC50 at 48 h: 390 ± 50 nM
[3]
  IC50 at 48 h: 2210 ± 20 nM
[4]
  IC50 at 48 h: 2910 ± 130 nM
[5]
  IC50 at 48 h: 1850 ± 220 nM
MCF-7 cells [6]
  decrease in NMN levels: 33%
MCF-7 cells [7]
  decrease in NAD+ level: 59%
  decrease in NAD+/NADH ratio: 38%
  decrease in NADH level: 33%
NAMPT
  reduction in NAMPT activity: slight decreases
Permeabilized 4T1 cells; 1 µM
  OXPHOS coupling efficiency: significant decrease
Permeabilized 4T1 cells; [8]
  increase in H2O2/O ratio: immediate significant increases
  increase in H2O2 production: immediate significant increases
Permeabilized 4T1 cells; titration
  mitochondrial function in the CII-linked OXPHOS state: no significant changes
Permeabilized 4T1 cells; [9]
  H2O2 production with complex I (NADH-linked) substrates: increased
  mitochondrial respiration rate with complex I (NADH-linked) substrates: inhibited
